# From the SangsterLogP compilation
# Assay: method code SF-AS, from DOI: 10.1021/jm00114a020, PMID: 1920359
# Conditions: pH 7.4
row,logD,Compound
1,0.17,NS(=O)(=O)c1ccc(CCCO)cc1
2,-0.26,NS(=O)(=O)c1ccc(S(=O)(=O)CCCCO)cc1
3,0.98,CC(=O)OCCCc1ccc(S(N)(=O)=O)cc1
4,0.72,NS(=O)(=O)c1ccc(SCCO)c(F)c1
5,-0.64,NS(=O)(=O)c1ccc(S(=O)(=O)CCCO)cc1
6,1.04,NS(=O)(=O)c1ccc(SCCCCCO)cc1
7,0.93,NS(=O)(=O)c1ccc(SCCCCO)cc1
8,-0.85,NS(=O)(=O)c1ccc(S(=O)(=O)CCO)cc1
9,0.8,NS(=O)(=O)c1ccc(SCCCO)cc1
10,-0.09,CC(C)(O)CCS(=O)(=O)c1ccc(S(N)(=O)=O)cc1
11,1.04,NS(=O)(=O)c1ccc(CCCCCO)cc1
12,0.36,NS(=O)(=O)c1ccc(SCCO)cc1
13,0.57,NS(=O)(=O)c1ccc(CCCCO)cc1
14,1.86,CC(=O)OCCCCCc1ccc(S(N)(=O)=O)cc1
15,1.4,CC(C)(O)CCSc1ccc(S(N)(=O)=O)cc1

# The next lines start with the compound.
row,Compound,logD
1,NS(=O)(=O)c1ccc(S(=O)(=O)CCCO)c(F)c1,-0.41
2,COC(=O)c1cc(S(N)(=O)=O)ccc1S(=O)(=O)CCO,-0.47
3,COC(=O)c1cc(S(N)(=O)=O)ccc1S(=O)(=O)CCCO,-0.3
4,NS(=O)(=O)c1ccc(S(=O)(=O)CCO)s1,-0.54
5,NS(=O)(=O)c1ccc(S(=O)(=O)CCO)c(F)c1,-0.6
6,CC(=O)OCCS(=O)(=O)c1ccc(S(N)(=O)=O)s1,0.11
7,NS(=O)(=O)c1ccc(SCCCO)c(Cl)c1,1.59
8,CC(=O)OCCCS(=O)(=O)c1ccc(S(N)(=O)=O)s1,0.17
9,NS(=O)(=O)c1ccc(SCCCCO)c(F)c1,1.28
10,NS(=O)(=O)c1ccc(S(=O)(=O)CCCO)s1,-0.36
11,NS(=O)(=O)c1ccc(S(=O)(=O)CCCO)c([N+](=O)[O-])c1,-0.05
12,NS(=O)(=O)c1ccc(SCCCO)c(F)c1,0.99
13,NS(=O)(=O)c1ccc(SCCCO)s1,0.85
14,Nc1cc(S(N)(=O)=O)ccc1S(=O)(=O)CCO,-0.6
15,Nc1cc(S(N)(=O)=O)ccc1S(=O)(=O)CCCO,-0.48
16,NS(=O)(=O)c1ccc(SCCCO)c([N+](=O)[O-])c1,0.96
17,COCC(=O)OCCCS(=O)(=O)c1ccc(S(N)(=O)=O)s1,-0.14
18,NS(=O)(=O)c1ccc(S(=O)(=O)CCCCO)s1,-0.34
19,NS(=O)(=O)c1ccc(SCCO)c([N+](=O)[O-])c1,0.38
20,NS(=O)(=O)c1ccc(SCCO)s1,0.38
21,NS(=O)(=O)c1ccc(SCCCCO)s1,0.95
